# Laboratory results as given in US20250235418A1, “Butyrate Analogues and Methods of Use for HIF Stabilization and Treatment of Bowel Disease” (THE REGENTS OF THE UNIVERSITY OF COLORADO, A BODY CORPORATE, priority 2022, published 2025).
# How the values were obtained:
# [1] = test system: HIF-1α / PHDs in murine colon; test: tributyrin oral gavage with or without MCPA in antibiotic SCFA-depleted mice; format: in vivo
# Method: We next confirmed that butyrate functions as a PHD inhibitor in vivo through antibiotic-mediated depletion of the gut microbiota and SCFAs in mice. […] We administered tributyrin (200 μL), a prodrug of butyrate composed of a glycerol backbone with three butyrate moieties, to SCFA-depleted mice via oral gavage every day for three days with glycerol as a control. Additionally, some mice given tributyrin were subjected with a rectal gavage of 60 mM MCPA to inhibit butyrate metabolism 4 h prior to sacrifice. […] 60 mM MCPA was chosen as a well-tolerated dose that inhibited β-oxidation in mice and rats. […] HIF-la protein was also diminished in epithelial scrapings (FIG. 8B) and whole colon tissue (FIG. 8C) with antibiotic treatment, which was also rescued with tributyrin supplementation with or without MCPA. […] The stabilization of HIF-1α in whole colon tissue also is in agreement with our findings in HMEC-1 and A549 cells that PHD inhibition by butyrate expands to beyond just IECs alone.
# [2] = oral gavage, 1 h after dosing, mice; cited from earlier work
# [3] = tributyrin with or without MCPA
structure (smiles),measurement,setting,value
CCCC(=O)OCC(COC(=O)CCC)OC(=O)CCC [tributyrin],HIF-1α protein after antibiotic depletion,"[1]; epithelial scrapings and whole colon tissue, tributyrin with or without MCPA",rescued
same,colon tissue 2-OG levels after antibiotic depletion,[1]; [3],recovered
same,colon tissue butyrate levels after antibiotic depletion,[1]; [3],rescued
same,HIF-1α target gene Bnip3l mRNA after antibiotic depletion,"[1]; whole colon tissue and epithelial scrapings, tributyrin 200 μL oral gavage 3 d, with or without MCPA",normalized
same,plasma butyrate concentration,[2],> 1 mM
